Source: ChEMBL document CHEMBL3774368, “1,2,4-Triazolyl octahydropyrrolo[2,3-b]pyrroles: A new series of potent and selective dopamine D3 receptor antagonists” (Bioorg Med Chem, 2016)
Blank lines part the entries; values can stand above or below the compound they belong to. Calls of active or inactive are those of the source. The calls are words filed in the database; no cut-off is given here.

Assays:
Liver microsome [1] = conditions: human, microsomes, 0.5 µM
D(3) dopamine receptor = D(3) dopamine receptor (Homo sapiens, UniProt P35462); experiment: Displacement of [3H]-spiperone from human dopamine D3 receptor expressed in CHO-K1 cell membranes after 90 mins by liquid scintillation counter method
[2] = Permeability across apical to basolateral side in human Caco2 cells; conditions: Caco-2, permeability
Liver microsome [3] = conditions: rat, microsomes, 0.5 µM
[4] = biological target: Muscarinic acetylcholine receptor M3 (Homo sapiens, UniProt P20309); experiment: Antagonist activity at recombinant human muscarinic M3 receptor expressed in CHO-K1 cells assessed as inhibition of acetylcholine induced calcium mobilization preincubated for 10 mins followed by acetylcholine addition measured after 1 hr by fluo-4 AM dye-based FLIPR assay; format: functional, cell-based
[5] = biological target: T1, Muscarinic acetylcholine receptor M1 (Homo sapiens, UniProt P11229); experiment: Antagonist activity at recombinant human muscarinic M1 receptor expressed in CHO-K1 cells assessed as inhibition of acetylcholine induced calcium mobilization preincubated for 10 mins followed by acetylcholine addition measured after 1 hr by fluo-4 AM dye-based FLIPR assay; format: functional, cell-based
T1 sequence (P11229 whole entry): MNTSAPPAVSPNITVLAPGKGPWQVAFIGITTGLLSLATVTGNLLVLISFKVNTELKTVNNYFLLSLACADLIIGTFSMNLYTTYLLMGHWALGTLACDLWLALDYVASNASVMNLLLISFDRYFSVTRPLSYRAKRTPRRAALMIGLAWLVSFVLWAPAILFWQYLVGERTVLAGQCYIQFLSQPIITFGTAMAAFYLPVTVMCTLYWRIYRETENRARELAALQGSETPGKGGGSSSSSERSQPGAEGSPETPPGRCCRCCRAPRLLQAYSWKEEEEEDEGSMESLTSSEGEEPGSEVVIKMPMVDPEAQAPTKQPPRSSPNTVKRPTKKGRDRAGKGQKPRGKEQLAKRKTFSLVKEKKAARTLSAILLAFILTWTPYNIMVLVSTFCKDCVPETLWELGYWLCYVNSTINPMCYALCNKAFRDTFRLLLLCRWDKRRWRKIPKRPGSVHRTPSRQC

[6] = Half life in portal vein cannulated Sprague-Dawley rat model; conditions: in vivo
in vitro [7] = conditions: rat, liver microsomes, CLH
in vitro [8] = conditions: human, liver microsomes, CLH
Cytochrome P450 3A4 [9] = biological target: T2, Cytochrome P450 3A4 (Homo sapiens, UniProt P08684); experiment: Inhibition of recombinant human CYP3A4 expressed in baculosomes preincubated for 10 mins followed by cofactor addition measured every minute for 10 mins using diethoxyflourescein as substrate by CYPEX assay
[10] = Volume of distribution at steady state in portal vein cannulated Sprague-Dawley rat model; conditions: in vivo
Cytochrome P450 2C9 = Cytochrome P450 2C9 (Homo sapiens, UniProt P11712); experiment: Inhibition of recombinant human CYP2C9 expressed in baculosomes preincubated for 10 mins followed by cofactor addition measured every minute for 10 mins using 7-methoxy-4-trifluoromethylcoumarin-3-acetic acid as substrate by CYPEX assay
[11] = biological target: Voltage-gated inwardly rectifying potassium channel KCNH2 (Homo sapiens, UniProt Q12809); experiment: Inhibition of human ERG tail current expressed in HEK293 cells after 5 mins by patch clamp assay
D(2) dopamine receptor [12] = biological target: T3, D(2) dopamine receptor (Homo sapiens, UniProt P14416); experiment: Displacement of [3H]-spiperone from human dopamine D2 receptor expressed in CHO-K1 cell membranes after 120 mins by liquid scintillation counter method
Cytochrome P450 3A4 [13] = biological target: T2, Cytochrome P450 3A4; experiment: Inhibition of recombinant human CYP3A4 expressed in baculosomes preincubated for 10 mins followed by cofactor addition measured every minute for 10 mins using 7-benzyloxyquinoline as substrate by CYPEX assay
Cytochrome P450 2C19 = Cytochrome P450 2C19 (Homo sapiens, UniProt P33261); experiment: Inhibition of recombinant human CYP2C19 expressed in baculosomes preincubated for 10 mins followed by cofactor addition measured every minute for 10 mins using 3-butyryl-7-methoxycoumarin as substrate by CYPEX assay
[14] = Clearance in portal vein cannulated Sprague-Dawley rat blood; conditions: whole blood
[15] = Fraction absorbed in portal vein cannulated Sprague-Dawley rat model; conditions: in vivo
Cytochrome P450 2D6 = Cytochrome P450 2D6 (Homo sapiens, UniProt P10635); experiment: Inhibition of recombinant human CYP2D6 expressed in baculosomes preincubated for 10 mins followed by cofactor addition measured every minute for 10 mins using 4-methylaminomethyl-7-methoxycoumarin as substrate by CYPEX assay
D(2) dopamine receptor [16] = biological target: T3, D(2) dopamine receptor; experiment: Antagonist activity at human dopamine D2L receptor expressed in CHO cells assessed as inhibition of dopamine-mediated Ca+2 stimulation pretreated for 10 mins followed by addition of dopamine by fluo-4 AM dye-based FLIPR assay; format: cell-based
Cytochrome P450 1A2 = biological target: T4, Cytochrome P450 1A2 (Homo sapiens, UniProt P05177); experiment: Inhibition of recombinant human CYP1A2 expressed in baculosomes preincubated for 10 mins followed by cofactor addition measured every minute for 10 mins using ethoxyresorufin as substrate by CYPEX assay
T4 sequence (P05177 whole entry): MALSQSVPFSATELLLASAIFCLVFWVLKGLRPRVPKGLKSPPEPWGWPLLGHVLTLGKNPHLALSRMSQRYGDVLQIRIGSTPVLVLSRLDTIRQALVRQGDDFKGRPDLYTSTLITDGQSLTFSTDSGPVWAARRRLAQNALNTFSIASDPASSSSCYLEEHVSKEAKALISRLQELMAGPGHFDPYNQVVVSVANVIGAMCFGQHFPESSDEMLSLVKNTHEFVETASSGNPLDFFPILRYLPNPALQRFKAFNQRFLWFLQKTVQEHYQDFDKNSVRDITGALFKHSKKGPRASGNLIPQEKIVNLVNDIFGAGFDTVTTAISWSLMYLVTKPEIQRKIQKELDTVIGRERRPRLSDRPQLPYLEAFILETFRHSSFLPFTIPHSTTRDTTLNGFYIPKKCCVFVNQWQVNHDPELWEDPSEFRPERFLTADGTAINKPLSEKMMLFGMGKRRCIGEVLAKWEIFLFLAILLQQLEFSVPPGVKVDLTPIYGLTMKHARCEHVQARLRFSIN

[17] = Solubility of compound; format: physicochemical
[18] = biological target: T5, D(4) dopamine receptor (Homo sapiens) (UniProt P21917); experiment: Binding affinity to dopamine D4 receptor (unknown origin)
T5 sequence (whole entry): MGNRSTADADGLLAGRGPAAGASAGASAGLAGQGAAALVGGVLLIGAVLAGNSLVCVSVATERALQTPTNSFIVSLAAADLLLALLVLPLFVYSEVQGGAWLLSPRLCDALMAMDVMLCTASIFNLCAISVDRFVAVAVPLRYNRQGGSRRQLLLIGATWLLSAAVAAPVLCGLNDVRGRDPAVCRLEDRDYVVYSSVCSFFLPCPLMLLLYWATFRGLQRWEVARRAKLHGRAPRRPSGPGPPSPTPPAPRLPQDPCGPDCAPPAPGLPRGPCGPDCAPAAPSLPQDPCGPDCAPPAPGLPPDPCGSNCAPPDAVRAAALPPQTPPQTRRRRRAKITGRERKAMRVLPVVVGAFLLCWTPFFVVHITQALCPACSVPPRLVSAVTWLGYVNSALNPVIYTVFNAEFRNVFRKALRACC

[19] = biological target: D(1A) dopamine receptor (Homo sapiens) (UniProt P21728); experiment: Binding affinity to dopamine D1 receptor (unknown origin)
Homo sapiens = organism: Homo sapiens; experiment: Selectivity ratio of IC50 for human ERG to Ki for human dopamine D3 receptor

Sequence of D(1A) dopamine receptor (Homo sapiens) (P21728 whole entry): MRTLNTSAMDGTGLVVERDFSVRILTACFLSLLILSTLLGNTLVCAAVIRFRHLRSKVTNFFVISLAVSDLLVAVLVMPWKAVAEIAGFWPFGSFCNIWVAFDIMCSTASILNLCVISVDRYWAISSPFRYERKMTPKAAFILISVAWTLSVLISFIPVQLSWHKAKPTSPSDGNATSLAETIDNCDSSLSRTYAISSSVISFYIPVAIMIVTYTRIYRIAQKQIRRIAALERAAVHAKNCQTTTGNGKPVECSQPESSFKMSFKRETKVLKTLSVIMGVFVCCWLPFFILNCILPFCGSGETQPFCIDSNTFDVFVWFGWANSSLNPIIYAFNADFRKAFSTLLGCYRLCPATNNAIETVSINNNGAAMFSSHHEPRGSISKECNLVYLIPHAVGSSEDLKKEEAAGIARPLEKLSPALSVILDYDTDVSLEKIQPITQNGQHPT
T2 sequence (P08684 whole entry): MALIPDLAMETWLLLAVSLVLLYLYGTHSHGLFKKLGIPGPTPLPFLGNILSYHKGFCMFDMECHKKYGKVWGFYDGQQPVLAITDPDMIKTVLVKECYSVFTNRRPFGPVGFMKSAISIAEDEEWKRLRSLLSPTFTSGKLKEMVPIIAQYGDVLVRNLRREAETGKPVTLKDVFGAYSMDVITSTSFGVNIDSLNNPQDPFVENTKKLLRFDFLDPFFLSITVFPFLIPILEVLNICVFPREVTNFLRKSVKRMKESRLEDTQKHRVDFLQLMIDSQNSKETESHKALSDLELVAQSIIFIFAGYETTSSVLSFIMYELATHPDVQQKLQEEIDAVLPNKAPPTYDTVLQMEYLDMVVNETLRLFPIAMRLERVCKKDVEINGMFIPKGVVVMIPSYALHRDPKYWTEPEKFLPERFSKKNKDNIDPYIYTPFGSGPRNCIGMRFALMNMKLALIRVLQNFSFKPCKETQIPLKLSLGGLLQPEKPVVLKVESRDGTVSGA
T3 sequence (P14416 whole entry): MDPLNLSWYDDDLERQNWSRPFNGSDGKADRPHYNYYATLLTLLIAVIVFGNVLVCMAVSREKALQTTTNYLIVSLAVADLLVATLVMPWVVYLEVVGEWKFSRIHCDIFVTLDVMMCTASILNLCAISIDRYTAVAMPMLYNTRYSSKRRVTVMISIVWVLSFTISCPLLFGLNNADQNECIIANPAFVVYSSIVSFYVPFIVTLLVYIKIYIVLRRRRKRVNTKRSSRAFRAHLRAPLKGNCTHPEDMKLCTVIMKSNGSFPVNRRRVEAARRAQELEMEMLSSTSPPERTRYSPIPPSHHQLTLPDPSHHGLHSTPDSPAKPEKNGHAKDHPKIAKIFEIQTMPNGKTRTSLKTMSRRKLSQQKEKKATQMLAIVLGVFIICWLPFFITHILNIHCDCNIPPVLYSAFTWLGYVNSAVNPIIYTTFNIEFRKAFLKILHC
Sequence of Cytochrome P450 2C9 (P11712 whole entry): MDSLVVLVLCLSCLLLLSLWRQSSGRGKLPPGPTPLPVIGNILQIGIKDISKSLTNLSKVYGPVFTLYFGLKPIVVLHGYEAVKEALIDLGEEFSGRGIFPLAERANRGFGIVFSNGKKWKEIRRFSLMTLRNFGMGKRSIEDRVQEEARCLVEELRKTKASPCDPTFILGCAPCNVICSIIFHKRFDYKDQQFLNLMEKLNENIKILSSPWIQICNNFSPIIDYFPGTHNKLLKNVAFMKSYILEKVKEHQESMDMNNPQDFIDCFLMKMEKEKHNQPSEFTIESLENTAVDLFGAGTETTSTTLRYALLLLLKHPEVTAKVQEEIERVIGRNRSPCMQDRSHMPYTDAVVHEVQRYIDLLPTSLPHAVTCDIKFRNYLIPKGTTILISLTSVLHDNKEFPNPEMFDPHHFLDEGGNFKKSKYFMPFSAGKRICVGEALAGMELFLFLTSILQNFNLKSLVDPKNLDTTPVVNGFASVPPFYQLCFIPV
Sequence of Cytochrome P450 2C19 (P33261 whole entry): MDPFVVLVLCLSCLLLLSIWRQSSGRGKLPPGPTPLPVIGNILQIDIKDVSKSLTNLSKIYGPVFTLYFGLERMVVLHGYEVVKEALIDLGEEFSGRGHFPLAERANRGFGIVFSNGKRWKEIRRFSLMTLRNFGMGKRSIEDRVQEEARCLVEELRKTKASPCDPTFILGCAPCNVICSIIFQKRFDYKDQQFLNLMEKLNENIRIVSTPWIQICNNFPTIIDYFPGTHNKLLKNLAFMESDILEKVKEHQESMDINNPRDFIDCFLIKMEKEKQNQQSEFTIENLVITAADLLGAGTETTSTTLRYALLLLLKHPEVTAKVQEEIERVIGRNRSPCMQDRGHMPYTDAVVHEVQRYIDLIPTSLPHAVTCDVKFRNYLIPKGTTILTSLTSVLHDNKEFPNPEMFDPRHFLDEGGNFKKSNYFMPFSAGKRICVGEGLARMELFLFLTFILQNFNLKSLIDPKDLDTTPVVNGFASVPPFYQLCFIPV
Sequence of Muscarinic acetylcholine receptor M3 (P20309 whole entry): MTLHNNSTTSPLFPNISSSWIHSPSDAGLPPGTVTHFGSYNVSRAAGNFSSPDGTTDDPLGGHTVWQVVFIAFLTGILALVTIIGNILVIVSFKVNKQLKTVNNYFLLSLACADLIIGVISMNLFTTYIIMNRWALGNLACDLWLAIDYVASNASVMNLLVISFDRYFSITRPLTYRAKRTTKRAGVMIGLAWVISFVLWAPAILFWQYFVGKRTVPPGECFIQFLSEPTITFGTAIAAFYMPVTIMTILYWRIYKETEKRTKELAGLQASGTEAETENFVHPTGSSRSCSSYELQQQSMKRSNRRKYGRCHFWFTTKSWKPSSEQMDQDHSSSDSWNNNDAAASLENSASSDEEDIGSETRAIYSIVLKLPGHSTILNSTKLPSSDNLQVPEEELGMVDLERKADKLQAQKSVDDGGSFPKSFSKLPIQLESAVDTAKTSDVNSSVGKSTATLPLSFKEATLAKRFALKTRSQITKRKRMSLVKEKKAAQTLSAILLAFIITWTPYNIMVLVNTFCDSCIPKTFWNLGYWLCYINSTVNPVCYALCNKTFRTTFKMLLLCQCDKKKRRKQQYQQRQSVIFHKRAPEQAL
Sequence of Cytochrome P450 2D6 (P10635 whole entry): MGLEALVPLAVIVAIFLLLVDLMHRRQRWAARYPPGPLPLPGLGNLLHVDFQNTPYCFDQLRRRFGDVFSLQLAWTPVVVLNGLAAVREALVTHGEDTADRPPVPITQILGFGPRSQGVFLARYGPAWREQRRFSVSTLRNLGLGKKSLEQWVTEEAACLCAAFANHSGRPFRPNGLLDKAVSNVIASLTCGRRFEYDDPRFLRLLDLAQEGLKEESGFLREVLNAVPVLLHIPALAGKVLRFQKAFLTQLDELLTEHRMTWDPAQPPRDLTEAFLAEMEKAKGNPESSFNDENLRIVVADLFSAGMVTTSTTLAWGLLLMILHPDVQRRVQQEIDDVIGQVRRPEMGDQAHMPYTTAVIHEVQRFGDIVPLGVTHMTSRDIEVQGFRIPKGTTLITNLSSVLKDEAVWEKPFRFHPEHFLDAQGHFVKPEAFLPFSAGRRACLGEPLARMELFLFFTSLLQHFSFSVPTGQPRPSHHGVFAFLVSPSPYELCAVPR
Sequence of D(3) dopamine receptor (P35462 whole entry): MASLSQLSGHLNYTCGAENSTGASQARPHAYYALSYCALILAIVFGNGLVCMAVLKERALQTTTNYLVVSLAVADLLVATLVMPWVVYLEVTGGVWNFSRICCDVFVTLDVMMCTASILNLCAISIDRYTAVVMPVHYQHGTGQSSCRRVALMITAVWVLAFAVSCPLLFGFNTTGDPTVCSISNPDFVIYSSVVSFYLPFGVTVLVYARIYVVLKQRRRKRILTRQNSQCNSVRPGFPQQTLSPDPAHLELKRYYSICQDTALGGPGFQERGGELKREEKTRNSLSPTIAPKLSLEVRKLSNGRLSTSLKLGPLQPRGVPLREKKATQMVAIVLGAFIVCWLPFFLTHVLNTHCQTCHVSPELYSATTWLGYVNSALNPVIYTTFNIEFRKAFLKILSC
Sequence of Voltage-gated inwardly rectifying potassium channel KCNH2 (Q12809 whole entry): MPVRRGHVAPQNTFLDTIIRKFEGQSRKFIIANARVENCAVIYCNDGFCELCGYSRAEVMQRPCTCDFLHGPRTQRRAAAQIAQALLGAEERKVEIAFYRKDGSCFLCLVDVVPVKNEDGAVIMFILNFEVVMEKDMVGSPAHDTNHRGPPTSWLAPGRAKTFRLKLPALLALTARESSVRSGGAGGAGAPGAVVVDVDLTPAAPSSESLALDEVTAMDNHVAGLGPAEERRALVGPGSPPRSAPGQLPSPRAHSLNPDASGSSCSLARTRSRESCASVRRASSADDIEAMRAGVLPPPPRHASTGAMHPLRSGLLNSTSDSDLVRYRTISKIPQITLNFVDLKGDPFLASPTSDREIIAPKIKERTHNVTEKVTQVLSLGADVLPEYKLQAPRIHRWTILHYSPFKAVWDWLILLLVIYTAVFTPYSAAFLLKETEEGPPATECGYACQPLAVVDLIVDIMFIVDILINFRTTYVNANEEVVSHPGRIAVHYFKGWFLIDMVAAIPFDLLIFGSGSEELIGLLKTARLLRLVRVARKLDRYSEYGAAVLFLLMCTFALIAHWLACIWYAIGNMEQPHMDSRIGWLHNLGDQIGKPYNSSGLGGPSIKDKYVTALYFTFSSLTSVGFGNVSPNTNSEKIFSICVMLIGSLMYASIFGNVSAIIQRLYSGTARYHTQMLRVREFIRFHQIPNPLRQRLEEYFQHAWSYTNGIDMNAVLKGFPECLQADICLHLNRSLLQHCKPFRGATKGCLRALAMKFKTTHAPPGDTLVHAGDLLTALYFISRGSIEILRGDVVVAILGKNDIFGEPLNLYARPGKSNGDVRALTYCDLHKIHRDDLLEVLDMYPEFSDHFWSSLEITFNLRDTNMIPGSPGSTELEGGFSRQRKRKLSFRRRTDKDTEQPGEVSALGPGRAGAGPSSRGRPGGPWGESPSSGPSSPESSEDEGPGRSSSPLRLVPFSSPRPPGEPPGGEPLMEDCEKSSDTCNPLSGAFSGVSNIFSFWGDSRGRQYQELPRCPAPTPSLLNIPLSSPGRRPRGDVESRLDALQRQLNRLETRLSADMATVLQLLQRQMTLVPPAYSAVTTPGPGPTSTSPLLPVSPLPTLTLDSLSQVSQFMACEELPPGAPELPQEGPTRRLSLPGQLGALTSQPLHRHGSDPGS

CLH (Liver microsome [1]): 111 µL/min
Ki (D(3) dopamine receptor): 5.01 nM
Papp A→B [2]: 5.3 ×10⁻⁶ cm/s
CLH (Liver microsome [3]): 30 µL/min
Ki [4]: 479 nM
Ki [5]: 380 nM
SMILES: Cn1c(SCCCN2CC3CCN(c4ccc(C(F)(F)F)cc4)C3C2)nnc1-c1ccc(=O)n(C)c1 (stereo in doubt; 57b) [listing 1 of 2 here]

half-life [6]: 18 min
microsomal CLint at 0.5 µM (in vitro [7]): 364 µL/min/mg
microsomal CLint at 0.5 µM (in vitro [8]): 88 µL/min/mg
IC50 (Cytochrome P450 3A4 [9]): > 1000 nM
Vd [10]: 2.2 L/kg
IC50 (Cytochrome P450 2C9): > 1000 nM
Ki (D(2) dopamine receptor [12]): 251 nM
IC50 (Cytochrome P450 3A4 [13]): > 1000 nM
IC50 (Cytochrome P450 2C19): > 1000 nM
clearance [14]: 80.1 mL/min/kg
Fa [15]: 50%
Ki [4]: 1260 nM
IC50 (Cytochrome P450 2D6): > 1000 nM
Ki (D(2) dopamine receptor [16]): 158 nM
IC50 (Cytochrome P450 1A2): > 1000 nM
Ki [5]: 1000 nM
SMILES: Cc1ncoc1-c1nnc(SCCCN2CC3CCN(c4ccccc4)C3C2)n1C (stereo in doubt; 6b) [listing 1 of 2 here]
IC50 [11]: 1260 nM

solubility [17]: > 2000 µg/mL
SMILES: Cc1ncoc1-c1nnc(SCCCN2CC3CCN(c4ccccc4)C3C2)n1C.Cl (configuration not stated)

Activity [18]: inactive
Activity [19]: inactive
SMILES: Cn1c(SCCCN2CC3CCN(c4ccccc4C(F)(F)F)C3C2)nnc1-c1cccnc1 (stereo in doubt; 52a)

microsomal CLint at 0.5 µM (in vitro [7]): > 700 µL/min/mg
microsomal CLint at 0.5 µM (in vitro [8]): > 700 µL/min/mg
IC50 (Cytochrome P450 3A4 [9]): > 2000 nM
IC50 (Cytochrome P450 2C9): > 2000 nM
Ki (D(2) dopamine receptor [12]): 158 nM
IC50 (Cytochrome P450 3A4 [13]): > 2000 nM
IC50 (Cytochrome P450 2C19): > 2000 nM
IC50 (Cytochrome P450 2D6): > 2000 nM
IC50 (Cytochrome P450 1A2): > 2000 nM
SMILES: Cn1c(SCCCN2CC3CCN(c4ccc(C(F)(F)F)cc4)C3C2)nnc1-c1cnccn1 (stereo in doubt; 17b)

Activity [18]: inactive
Activity [19]: inactive
SMILES: Cn1c(SCCCN2CC3CCN(c4ccc(C(F)(F)F)cc4)C3C2)nnc1-c1ccc(=O)n(C)c1 (stereo in doubt; 57b) [listing 2 of 2 here]

Selectivity ratio (Homo sapiens): > 100
SMILES: Cn1c(SCCCN2CC3CCN(c4ccc(C(F)(F)F)cc4)C3C2)nnc1-c1cc[nH]c(=O)c1 (racemic)

Activity [19]: inactive
SMILES: Cc1ncoc1-c1nnc(SCCCN2CC3CCN(c4ccccc4)C3C2)n1C (stereo in doubt; 6b) [listing 2 of 2 here]

solubility [17]: 300 µg/mL
SMILES: Cc1ncoc1-c1nnc(SCCCN2CC3CCN(c4ccc(C(F)(F)F)cc4)C3C2)n1C.Cl (configuration not stated)

Activity [19]: inactive
Selectivity ratio (Homo sapiens): > 250
SMILES: Cn1c(SCCCN2CC3CCN(c4ccc(C(F)(F)F)cc4)C3C2)nnc1-c1cc[nH]c(=O)c1 (stereo in doubt; 55b)
